Activity calls are given as the source filed them. No cut-off for these calls is given here.

Activity data for one molecule are collected here from ChEMBL document CHEMBL1949597, “Novel vitamin D receptor ligands bearing a spherical hydrophobic core structure--comparison of bicyclic hydrocarbon derivatives with boron cluster derivatives” (Bioorg Med Chem Lett, 2012).

The experiment deals with T1, Vitamin D3 receptor (Homo sapiens) (UniProt P11473).
T1 sequence (whole entry): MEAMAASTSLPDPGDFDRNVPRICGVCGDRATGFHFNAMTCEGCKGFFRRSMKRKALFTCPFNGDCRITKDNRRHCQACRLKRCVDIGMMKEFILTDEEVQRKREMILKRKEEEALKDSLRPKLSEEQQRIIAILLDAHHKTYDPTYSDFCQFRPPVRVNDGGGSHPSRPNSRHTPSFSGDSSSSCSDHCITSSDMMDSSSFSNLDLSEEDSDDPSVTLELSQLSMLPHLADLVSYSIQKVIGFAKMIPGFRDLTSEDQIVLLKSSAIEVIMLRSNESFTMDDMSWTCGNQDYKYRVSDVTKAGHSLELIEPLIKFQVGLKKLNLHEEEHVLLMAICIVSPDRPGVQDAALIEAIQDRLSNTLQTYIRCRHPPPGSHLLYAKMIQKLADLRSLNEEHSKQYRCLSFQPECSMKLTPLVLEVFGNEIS
In words: Induction of vitamin D receptor-mediated differentiation of human HL60 cells at 10^-6 M by NBT reduction method. Type of experiment: cell-based. The conditions noted are these: HL-60.

Turning to `CCC(O)(CC)CCCCC12CCC(COCCC(O)CCO)(CC1)CC2` (stereo unspecified), the outcome was Active.
